Here are results for one compound from PMC10072326, “Promising anticancer agents based on 8-hydroxyquinoline hydrazone copper(II) complexes” (Frontiers in Chemistry, 2023).

≈ marks a conversion by molar mass, not a printed value.

The test system of one series is A-375 cells. The series can be described thus: Sulforhodamine B (SRB) cell viability assay. It is filed as cell-based. The conditions noted are these: Homo sapiens, 72 h. The procedure:
(§1) Copper compounds were tested, along with the free ligands and cisplatin as the positive control, for their cytotoxicity on both melanoma (A-375) and lung adenocarcinoma (A-549) cell lines in the concentration range 0.78–50 μM. Following 72 h of incubation, cell viability was measured via sulforhodamine B (SRB) assay (Supplementary Figure S25).
(§2) A-375 cells (ATCC, CRL-3222) were grown in Dulbecco’s Modified Eagle Medium with high glucose (Gibco #11965118) and A-549 (ATCC, CCL-185) cells were grown in Dulbecco’s Modified Eagle Medium F-12 (Gibco #11320033), supplemented with 10% FBS (Gibco, #10500064) and Penicillin-Streptomycin (10,000 U/mL, Gibco, #15140122). Cells were incubated at 37 °C, 5% CO2 incubator and subcultured every 3 days.
(§3) All the tested complexes were dissolved in DMSO (10 mM stock solution), and aliquots were stored at -20 °C, thawed on the experiment day and used only once. For SRB cell viability assay, A-375 and A-549 cells were seeded on 96-well plates (4×10^3 cells/well) and treated with serial dilutions of indicated compounds (with a concentration range of 0-50 μM, 72 h). Trichloroacetic acid (TCA) was added to wells for fixation at a final concentration of 10%, for 1 h at 4 °C. Each well was washed five times with ddH2O, dried, and incubated with 0.4% (w/v) SRB dye (50 µL/well) for 30 min at room temperature. The wells were washed with 1% acetic acid (v/v) five times, and 150 µL of 10 mM Tris solution was added to dissolve the stain. Colorimetric measurements were taken at λ = 564 nm. Viability percentage was calculated as follows: % Cell Viability = [100 × (sample Abs.-blank) / (non-treated control Abs.-blank)].

A further series has as its system A-549 cells. The series can be described thus: Sulforhodamine B (SRB) cell viability assay. It is filed as cell-based. The conditions noted are these: Homo sapiens, A549, 72 h. The procedure:
as §1, §2, §3

Details of series [1]: method as in Ribeiro et al., 2022. The conditions noted are these: 30% (v/v) DMSO/H2O; t = 25.0°C; I = 0.1 M (KCl); ref Ribeiro et al., 2022; cited from earlier work.
Series [2] deals with bovine serum albumin (BSA) (Bos taurus, UniProt P02769). Nature of the series: BSA fluorescence quenching. It is filed as binding. The conditions noted are these: fluorescence quenching; HypSpec2014; 1:1 species assumed. The arrangement: Affinity constant K ± SD: unit not given here. The procedure: To evaluate the interaction of the compounds, both organic and Cu(II) complexes, with bovine serum albumin (BSA) fluorescence spectra were measured. In a typical fluorescence experiment, to a solution of 1.5 μM of BSA in the same buffer, successive aliquots of a stock solution of each compound in DMSO were added directly to the cuvette (optical path 1.0 cm). The fluorescence emission was recorded between 310 and 600 nm with excitation at 295 nm. The final DMSO % was kept below 2% (v/v). The Stern-Volmer plots were built using the emission at 340 nm and blank samples (in the absence of BSA) with the same concentration of the complexes were recorded and subsequently subtracted from the corresponding emission spectra containing the fluorophore. Moreover, the fluorescence emission intensity was corrected for reabsorption and inner filter effects using UV-Vis absorption data recorded for each sample, since all complexes absorb in the measured wavelength range (19, 20).
The interaction of the organic compounds and Cu(II) complexes with BSA was monitored by studying the quenching of albumin’s fluorescence emission with increasing concentrations of the complexes (25). Overall, the intensity of the Trp emission decreases with the addition of the complexes, except for 8 (see Figs. S19). The Stern-Volmer relationship was used to analyse the fluorescence quenching process:
where I0 and I are the fluorescence intensities in the absence and in the presence of quencher, kq is the bimolecular quenching rate, τ0 is the fluorophore lifetime in the absence of the quencher (6.22 ns) (26) and [Q] is the quencher concentration. […] This linear relationship is obeyed for all complexes except 5, where a downward curvature is observed. This can be an indication of two distinct binding sites, corresponding to two populations of fluorophores, one being accessible and other inaccessible or buried inside the protein. In such cases, the Stern-Volmer relation can be modified to (27):
where ΔI = I0 – I, Ka is the Stern-Volmer constant for the accessible fraction and fa is the fraction of accessible fluorophore. […] As first approximation, the total concentration of quencher was used to check the quenching mechanism. […] As all systems presented high absorbance values in the measured range of wavelengths, no excess of quencher was used and, therefore, 1:1 species will be assumed for these interactions.

On the set-up of series [3]: method as in Ribeiro et al., 2022. The conditions noted are these: ligand precursors; pH 7.4; ref Ribeiro et al., 2022; cited from earlier work.
Series [4] in a line: Cu(II) complex formation and stability constants by UV-Vis spectrophotometric titrations. It is filed as physicochemical. The conditions noted are these: for pCu (= −log[Cu(II)]): pH 7.4, c Cu(II) = 1 μM, computed from stability constants. Here is the method: The complex formation processes of L^1, L^5 and L^6 with Cu(II) ions were studied by UV-Vis spectrophotometry in 30% (v/v) DMSO/H2O using relatively low concentrations (c L = 50–60 μM), due to the limited water solubility of the ligand precursors as well as of the Cu(II) complexes (see thermodynamic solubility data in aqueous media in Table 2 and Table 3). L^1 was selected as the simplest compound of the studied ligand series, whereas L^5 and L^6 were selected to compare with the oxidovanadium(IV) system ([Ribeiro et al., 2022]). The solution stability and stoichiometry of the Cu(II) complexes were determined by the evaluation of the UV-Vis spectra recorded at various pH values (representative spectra are shown for the Cu(II) ‒ L^1 and Cu(II) ‒ L^6 systems in Figures 3A,B and for Cu(II) ‒ L^5 in Supplementary Figure S10A). The computed overall stability constants and pK a values of the complexes are collected in Table 3. The formation of only mono-ligand complexes was found with [Cu(LH)]^+, [Cu(L)], and [Cu(LH‒1)]^‒ (and [Cu(LH‒2)]^2‒ in the case of L^6) compositions, and their computed molar absorbance spectra are shown in Figures 3C, D, Supplementary Figure S10B.
An Agilent Cary 8454 diode array spectrophotometer was used to record the UV-Vis spectra in the range of 200–800 nm. Titrations were carried out with a Metrohm 665 Dosimat burette and an Orion 710A pH-meter equipped with a Metrohm combined electrode. A ionic strength of 0.10 M (KCl) was used to keep the activity coefficients constant. The titrations were performed with 0.10 M carbonate-free KOH solution in a 30% (v/v) DMSO/H2O solvent mixture. […] The average water ionization constant (pKw) is 14.53 ± 0.05 in the 30% (v/v) DMSO/H2O solvent mixture. The pKa values of the ligand precursors and the logβ values for the Cu(II) complexes were determined in 30% (v/v) DMSO/H2O in the same way as it was done in our previous publications (9, 11).
Spectrophotometric titrations were carried out on samples containing the ligands at 50 μM concentration, in the pH range from 2.0 to 11.5 in the absence or the presence of 1, 0.5 or 0.25 equiv. Cu(II) ions, using 10 cm^3 sample volumes. Proton dissociation constants (pKa) of the ligand precursors as well as stoichiometry and stability constants of the Cu(II) complexes (β) were calculated by the computer program PSEQUAD (12). The usual definition of overall (β) and stepwise (K) formation constants is used: […]

[5] abbreviates: Cu(II) complex of the ligand, 30% (v/v) DMSO/H2O, t = 25.0°C, I = 0.10 M (KCl).
The mark [6] stands for this setting: proton dissociation of the Cu(II) complex, 30% (v/v) DMSO/H2O.

Chain of bovine serum albumin (BSA) (P02769 25-607): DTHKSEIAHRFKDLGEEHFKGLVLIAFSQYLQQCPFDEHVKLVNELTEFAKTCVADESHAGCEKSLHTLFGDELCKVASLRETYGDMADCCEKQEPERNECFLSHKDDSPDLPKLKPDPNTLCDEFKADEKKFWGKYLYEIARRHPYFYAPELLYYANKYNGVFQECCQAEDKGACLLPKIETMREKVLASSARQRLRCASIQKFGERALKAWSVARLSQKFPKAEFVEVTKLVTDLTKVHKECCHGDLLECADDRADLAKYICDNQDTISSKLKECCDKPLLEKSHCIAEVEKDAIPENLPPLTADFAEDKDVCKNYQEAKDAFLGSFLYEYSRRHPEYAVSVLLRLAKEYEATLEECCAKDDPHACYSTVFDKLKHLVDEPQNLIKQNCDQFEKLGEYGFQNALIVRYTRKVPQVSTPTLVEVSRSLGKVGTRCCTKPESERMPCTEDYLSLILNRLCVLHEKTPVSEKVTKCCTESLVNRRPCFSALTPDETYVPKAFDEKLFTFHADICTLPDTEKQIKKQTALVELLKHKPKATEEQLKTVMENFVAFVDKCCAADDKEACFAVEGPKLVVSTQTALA

As a reminder, the IC50 is the point on the concentration scale where inhibition reaches its midpoint. For the compound `O=C(N/N=C/c1ccc2cccc(O)c2n1)c1ccccc1` [L^1], 12.3 ± 0.5 µM corresponded to half-maximal inhibition in the series with A-375 cells (IC50). For the same compound, the IC50 in the series on A-549 cells is greater than 50 µM. Besides, in series [1], the “pK a1” value is recorded as 2.24, the “pK a2” value is 9.51 and the “pK a3” value is reported as 11.45. For the same compound, the “Affinity constant K ± SD” value in series [2] is “(4.6 ± 0.2) × 10^5”. Further, the “thermodynamic solubility S 7.4” value in series [3] was 3.7 µM (≈ 1.08 µg/mL). Also, in series [4] (setting [5]), the “logβ [Cu(L)]” value is recorded as 17.79 ± 0.02, the “logβ [Cu(LH)]^+” value turned out to be 23.41 ± 0.02 and the “logβ [Cu(LH‒1)]^‒” value is 7.39 ± 0.03. Further, in series [4] (c L = 1 μM), the “pCu (= −log[Cu(II)])” value is 8.96. Besides, the “pCu (= −log[Cu(II)])” value in series [4] (c L = 10 μM) is reported as 12.59. Besides, in series [4] (setting [6]), the “pK a [Cu(L)]” value was determined as 10.40 and the “pK a [Cu(LH)]^+” value worked out at 5.62.
